One may read the GI50 as the concentration giving 50% growth inhibition. As a reminder, the TGI is the concentration giving total growth inhibition. Low readings indicate more potent growth arrest, high ones less potent growth arrest.

This note sets out measurements from ChEMBL document CHEMBL2440076, “New triarylpyrazoles as broad-spectrum anticancer agents: design, synthesis, and biological evaluation” (Eur J Med Chem, 2013).

What all share (assay type): functional
In one test the test system is MDA-MB-468. The test can be described thus: Growth inhibition of human MDA-MB-468 cells assessed as cell growth at 10 uM after 48 hrs by sulforhodamine B assay. The note with it: MDA-MB-468, 48 h, read-out: Activity. Background: Sulforhodamine B stains cellular protein and so reports cell mass.
The subject of another test is OVCAR-5. The test can be described thus: Growth inhibition of human OVCAR5 cells assessed as cell growth at 10 uM after 48 hrs by sulforhodamine B assay. The note with it: OVCAR-5, 48 h, read-out: Activity.
For test [1], the system named is SK-MEL-2. The test can be described thus: Growth inhibition of human SK-MEL-2 cells assessed as cell growth at 10 uM after 48 hrs by sulforhodamine B assay. The following applies: SK-MEL-2, 48 h, read-out: Activity.
The next test has as its system SF-268. The test can be described thus: Growth inhibition of human SF268 cells assessed as cell growth at 10 uM after 48 hrs by sulforhodamine B assay. The following applies: SF-268, 48 h, read-out: Activity.
Another test has as its system BT-549. The test can be described thus: Growth inhibition of human BT549 cells after 48 hrs by sulforhodamine B assay. The note with it: BT-549, 48 h.
A further test deals with TK-10. The test can be described thus: Growth inhibition of human TK10 cells after 48 hrs by sulforhodamine B assay. The following applies: TK-10, 48 h; for CC50: read-out: LC50 (the source's name).
The test system of a further test is UACC-62. The test can be described thus: Growth inhibition of human UACC62 cells after 48 hrs by sulforhodamine B assay. The note with it: UACC-62, 48 h.
In test [2] the test system is SK-MEL-2. The test can be described thus: Growth inhibition of human SK-MEL-2 cells after 48 hrs by sulforhodamine B assay. The following applies: SK-MEL-2, 48 h.
For the next test, the system named is M14. The test can be described thus: Growth inhibition of human M14 cells after 48 hrs by sulforhodamine B assay. The note with it: M14, 48 h.
The test system of another test is SNB-75. The test can be described thus: Growth inhibition of human SNB75 cells after 48 hrs by sulforhodamine B assay. The note with it: SNB-75, 48 h.
The test system of another test is SNB-19. The test can be described thus: Growth inhibition of human SNB19 cells after 48 hrs by sulforhodamine B assay. The following applies: SNB-19, 48 h.
The next test concerns SF-539. The test can be described thus: Growth inhibition of human SF539 cells after 48 hrs by sulforhodamine B assay. The note with it: SF-539, 48 h.

Some results are limits rather than exact numbers.

On to `COc1cc(-c2nn(-c3cccc(NC(=O)c4ccc(Br)c(C)c4)c3)cc2-c2ccncc2)ccc1Cl`, for which the growth at 10 µM in the test on MDA-MB-468 worked out at 83.5%; in the test with OVCAR-5, 90.7%; in the test on SK-MEL-2 [1], 58.2%; in the test on SF-268 it was 84.1%.

As for `COc1cc(-c2nn(-c3cccc(NC(=O)c4ccc(N5CCOCC5)c(C(F)(F)F)c4)c3)cc2-c2ccncc2)ccc1Cl`, the growth at 10 µM is -37.8% in the test with MDA-MB-468, 34.7% in the test on OVCAR-5, -8.84% with SK-MEL-2 [1] and 22.5% in the test on SF-268. The 50% growth inhibitory concentration (GI50) worked out at 1.41 µM in the test with BT-549; 1.49 µM in the test with TK-10; 0.266 µM in the test on UACC-62; 0.291 µM in the test with SK-MEL-2 [2]; 0.43 µM with M14; 0.212 µM in the test on SNB-75. Further, the GI50 with SNB-19 came to 0.52 µM; in the test with SF-539, 0.153 µM. Besides, the LC50 (50% lethal concentration) with BT-549, with UACC-62 and with SK-MEL-2 [2] was above 100 µM throughout. Besides, the concentration for total growth inhibition (TGI) in the test with BT-549 was above 100 µM; in the test on TK-10, 45.3 µM; in the test with UACC-62, 8.2 µM; with SK-MEL-2 [2] it was 8.24 µM; in the test on M14 it was 16 µM; in the test with SNB-19 it was above 100 µM. In the test with SF-539, this compound returned a TGI of 0.497 µM. In addition, the CC50 with TK-10 was above 100 µM. The LC50 (concentration killing 50% of cells) in the test with M14 and with SNB-19 was above 100 µM throughout. In the test with SNB-75, this compound showed an LC50 (lethal concentration, 50% net cell kill) above 100 µM.

As to `O=C(Nc1cccc(-n2cc(-c3ccncc3)c(-c3ccc(Cl)c(O)c3)n2)c1)Nc1cccc(C(F)(F)F)c1`, the growth at 10 µM with MDA-MB-468 is 10.5%; in the test with OVCAR-5 it was 62.4%; in the test on SK-MEL-2 [1] it was -25.6%; in the test with SF-268, 28.5%. For the same compound, the GI50 in the test on BT-549 amounted to 6.51 µM; in the test on TK-10 it was 2.12 µM; in the test with UACC-62, 1.65 µM; in the test on SK-MEL-2 [2], 2.02 µM; in the test with M14, 1.4 µM; with SNB-75 it was 3.65 µM. Besides, the GI50 was 1.91 µM with SNB-19 and 3.54 µM in the test on SF-539. Also, the LC50 (50% lethal concentration) in the test on BT-549 was above 32.5 µM; in the test on UACC-62 it was 21.9 µM; in the test with SK-MEL-2 [2] it was above 32.5 µM. In addition, the total growth inhibition concentration (TGI) in the test with BT-549 was 21.4 µM; in the test with TK-10, above 32.5 µM; with UACC-62, 6.91 µM; with SK-MEL-2 [2] it was 10.8 µM; in the test on M14, 10.8 µM; with SNB-75, above 32.5 µM. For the same compound, the figures for the TGI with SNB-19 and with SF-539 were above 32.5 µM and 11.6 µM, respectively. Besides, the CC50 in the test with TK-10 is above 32.5 µM. Moreover, the LC50 (concentration killing 50% of cells) with M14, with SNB-19 and with SF-539 was above 32.5 µM in each case. The compound also yielded an LC50 (lethal concentration, 50% net cell kill) in the test with SNB-75 above 32.5 µM.

With `Cc1cc(C(=O)Nc2cccc(-n3cc(-c4ccncc4)c(-c4ccc(Cl)c(O)c4)n3)c2)ccc1Br`, the growth at 10 µM in the test on MDA-MB-468 was found to be 93.2%; in the test with OVCAR-5, 109%; in the test on SK-MEL-2 [1], 106%; with SF-268 it was 104%.

Turning to `O=C(Nc1cccc(-n2cc(-c3ccncc3)c(-c3ccc(Cl)c(O)c3)n2)c1)c1ccc(Cl)c(C(F)(F)F)c1`, the growth at 10 µM with MDA-MB-468 is 98.2%; in the test with OVCAR-5 it was 99.6%; with SK-MEL-2 [1] it was 93.7%; in the test with SF-268, 98.1%.

On to `COc1cc(-c2nn(-c3cccc(NC(=O)Nc4ccccc4)c3)cc2-c2ccncc2)ccc1Cl`, for which the growth at 10 µM in the test with MDA-MB-468 worked out at 83.4%; with OVCAR-5, 91.3%; in the test on SK-MEL-2 [1], 77%; in the test with SF-268 it was 81.2%.

As to `O=C(Nc1cccc(-n2cc(-c3ccncc3)c(-c3ccc(Cl)c(O)c3)n2)c1)c1ccccc1`, the growth at 10 µM in the test with MDA-MB-468 is 64.1%; in the test on OVCAR-5, 115%; with SK-MEL-2 [1], 67.9%; in the test on SF-268, 68.3%.
